Consider 26 compounds from PubChem BioAssay AID248 (DTP/NCI, 2004).

Where “and” joins values, the source holds several entries; their conditions need not be identical. Equal values may be shown once. Toxic doses and inconclusive results are not listed.

This assay has as its system L1210 leukemia ip in BDF1 mice, survival T/C. Description: NCI In Vivo Anticancer Drug Screen. Data for tumor model L1210 Leukemia (intraperitoneal) in B6D2F1 (BDF1) mice. The settings on record: endpoint: mean survival time, higher = longer survival. The method in brief: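 Each compound was tested against a transplantable tumor grown in mice. The endpoint was survival, with treated animals benchmarked against vehicle controls as a simple ratio.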

[1] abbreviates: dose: 100.0 mg/kg/injection, schedule: Q04DX003 (ip), vehicle: saline with Tween-80.
Setting [2] is: dose: 200.0 mg/kg/injection, schedule: Q04DX003 (ip), vehicle: saline with Tween-80.
Where [3] appears, read: dose: 100.0 mg/kg/injection, schedule: Q01DX001 (ip), vehicle: carboxymethylcellulose (CMC).
Where [4] appears, read: dose: 200.0 mg/kg/injection, schedule: Q01DX001 (ip), vehicle: carboxymethylcellulose (CMC).
[5] abbreviates: dose: 100.0 mg/kg/injection, schedule: Q01DX009 (ip), vehicle: saline.
Setting [6] is: dose: 100.0 mg/kg/injection, schedule: Q04DX003 (ip), vehicle: saline.
The mark [7] stands for this setting: dose: 200.0 mg/kg/injection, schedule: Q04DX003 (ip), vehicle: saline.
[8] abbreviates: dose: 100.0 mg/kg/injection, schedule: Q01DX009 (ip), vehicle: Klucel (hydroxypropylcellulose) (HPC).
The mark [9] stands for this setting: dose: 100.0 mg/kg/injection, schedule: Q04DX003 (ip), vehicle: Klucel (hydroxypropylcellulose) (HPC).
[10] abbreviates: dose: 200.0 mg/kg/injection, schedule: Q01DX009 (ip), vehicle: Klucel (hydroxypropylcellulose) (HPC).
Where [11] appears, read: dose: 200.0 mg/kg/injection, schedule: Q04DX003 (ip), vehicle: Klucel (hydroxypropylcellulose) (HPC).
[12] abbreviates: dose: 400.0 mg/kg/injection, schedule: Q01DX009 (ip), vehicle: Klucel (hydroxypropylcellulose) (HPC).
Where [13] appears, read: dose: 400.0 mg/kg/injection, schedule: Q04DX003 (ip), vehicle: Klucel (hydroxypropylcellulose) (HPC).
Setting [14] is: dose: 400.0 mg/kg/injection, schedule: Q01DX001 (ip), vehicle: carboxymethylcellulose (CMC).
Where [15] appears, read: dose: 50.0 mg/kg/injection, schedule: Q01DX009 (ip), vehicle: saline with Tween-80.
The mark [16] stands for this setting: dose: 100.0 mg/kg/injection, schedule: Q01DX009 (ip), vehicle: saline with Tween-80.
[17] abbreviates: dose: 200.0 mg/kg/injection, schedule: Q01DX009 (ip), vehicle: saline with Tween-80.
[18] abbreviates: dose: 400.0 mg/kg/injection, schedule: Q04DX003 (ip), vehicle: saline with Tween-80.
The mark [19] stands for this setting: dose: 100.0 mg/kg/injection, schedule: Q01DX001 (ip), vehicle: saline.
Setting [20] is: dose: 200.0 mg/kg/injection, schedule: Q01DX001 (ip), vehicle: saline.
The mark [21] stands for this setting: dose: 400.0 mg/kg/injection, schedule: Q01DX001 (ip), vehicle: saline.
The mark [22] stands for this setting: dose: 400.0 mg/kg/injection, schedule: Q01DX009 (ip), vehicle: saline with Tween-80.
The mark [23] stands for this setting: dose: 100.0 mg/kg/injection, schedule: Q04DX002 (ip), vehicle: saline with Tween-80.

As for `COC(=O)[C@@H]1[C@H](O)[C@H](C)[C@H](O)[C@H](C)/C=C\C=C(C)C(=O)Nc2c(C)c(OC(C)=O)c3c(c2O)C(=O)C(C)=C2OCOC(=C23)C(C)=C[C@@](C)(O)[C@H](O)[C@@H](C)[C@H]1OC(C)=O`, the T/C reads like this: (dose: 100.0 mg/kg/injection, schedule: Q04DX002 (ip), vehicle: Klucel (hydroxypropylcellulose) (HPC)) 96 % of control; (dose: 200.0 mg/kg/injection, schedule: Q04DX002 (ip), vehicle: Klucel (hydroxypropylcellulose) (HPC)) 101 % of control; (dose: 400.0 mg/kg/injection, schedule: Q04DX002 (ip), vehicle: Klucel (hydroxypropylcellulose) (HPC)) 101 % of control.

As for `COc1cc(C=C(C(C)=O)C(C)=O)ccc1O`, the T/C runs as follows: under setting [1], 112 % of control; under setting [2], 109 % of control.

For the compound `Clc1ncnc2scnc12`, the T/C by setting is: (dose: 50.0 mg/kg/injection, schedule: Q01DX001 (ip), vehicle: carboxymethylcellulose (CMC)) 102 % of control; under setting [3], 91 % of control; under setting [4], 98 % of control.

Consider `NC(=O)CC(N)c1nn[nH]n1` (centres undefined), for which the T/C is 89 % of control under setting [5]; 97 % of control under setting [6]; 98 % of control (dose: 200.0 mg/kg/injection, schedule: Q01DX009 (ip), vehicle: saline); 100 % of control under setting [7]; 102 % of control (dose: 400.0 mg/kg/injection, schedule: Q01DX009 (ip), vehicle: saline); 103 % of control (dose: 400.0 mg/kg/injection, schedule: Q04DX003 (ip), vehicle: saline).

As for `C=C(C)c1cc2c(cc1O)OCC2C` (centres undefined), the T/C runs as follows: (dose: 50.0 mg/kg/injection, schedule: Q01DX009 (ip), vehicle: Klucel (hydroxypropylcellulose) (HPC)) 101 % of control; under setting [8], 92 % of control and 96 % of control; under setting [9], 107 % of control; under setting [10], 86 % of control and 89 % of control; under setting [11], 94 % of control; under setting [12], 96 % of control. Further, the T/C under setting [13] was 94 % of control.

As for `CSc1cc2c(cc1N)Cc1cc(F)ccc1-2`, the T/C under setting [3] is 98 % of control, the T/C under setting [4] was 98 % of control and the T/C under setting [14] is 95 % of control.

`C=C(Br)CNC(=O)C(=O)OCC`: the T/C reads like this: under setting [15], 97 % of control; under setting [16], 94 % of control; (dose: 132.0 mg/kg/injection, schedule: Q04DX003 (ip), vehicle: saline with Tween-80) 93 % of control; under setting [17], 97 % of control; under setting [2], 90 % of control; (dose: 300.0 mg/kg/injection, schedule: Q04DX003 (ip), vehicle: saline with Tween-80) 96 % of control.

With `Nc1nnnc2c1ncn2C1CCCC1`, the T/C (dose: 75.0 mg/kg/injection, schedule: Q01DX001 (ip), vehicle: other) is 97 % of control.

Consider `CC(C)(C)CC(C)(C)c1ccc(OCCO)cc1`, for which the T/C (dose: 50.0 mg/kg/injection, schedule: Q01DX009 (ip), vehicle: saline) was 97 % of control; the T/C under setting [5] is 91 % of control; the T/C under setting [6] was 107 % of control; the T/C under setting [7] was 101 % of control.

In the case of `O=C(O)C1C2CCC3C(C(=O)O)C3C21` (centres undefined), the T/C under setting [8] was 100 % of control; the T/C under setting [9] is 97 % of control; the T/C under setting [10] is 97 % of control; the T/C under setting [11] is 101 % of control; the T/C under setting [12] is 92 % of control; the T/C under setting [13] was 98 % of control.

With `CC#CC(O)(C(=O)OC)c1ccccc1` (centres undefined), the T/C is 94 % of control under setting [3], 102 % of control under setting [4] and 108 % of control under setting [14].

Regarding `c1ccc(CC2CCCC2)cc1`, the T/C is, setting by setting: under setting [9], 93 % of control; under setting [11], 95 % of control; (dose: 300.0 mg/kg/injection, schedule: Q04DX003 (ip), vehicle: Klucel (hydroxypropylcellulose) (HPC)) 106 % of control.

On to `COc1ccc(NC2=NCCS2)cc1`, for which the T/C is, setting by setting: under setting [15], 95 % of control; under setting [16], 95 % of control; under setting [17], 96 % of control.

On to `Cc1cc(C)cc(C(C)C)c1`, for which the T/C is 96 % of control under setting [1], 96 % of control under setting [2] and 93 % of control under setting [18].

On to `CC(SCc1ccccc1)C(=O)O` (centres undefined), for which the T/C is 97 % of control under setting [19], 94 % of control under setting [20] and 92 % of control under setting [21].

Turning to `CC(=O)Oc1ccc(CCNC(c2ccccc2)c2ccccc2)cc1OC(C)=O`, the T/C under setting [19] was 100 % of control, the T/C under setting [20] was 107 % of control and the T/C under setting [21] was 86 % of control.

For `Cc1c2ccccc2c(CSCCC(N)C(=O)O)c2ccccc12` (centres undefined), the T/C is 89 % of control under setting [16], 91 % of control under setting [17] and 110 % of control under setting [22].

In the case of `CN(CCC#N)C(=O)Nc1ccc(Cl)c(Cl)c1`, the T/C reads like this: (dose: 100.0 mg/kg/injection, schedule: Q04DX002 (ip), vehicle: other) 109 % of control; (dose: 200.0 mg/kg/injection, schedule: Q04DX002 (ip), vehicle: other) 102 % of control; (dose: 400.0 mg/kg/injection, schedule: Q04DX002 (ip), vehicle: other) 102 % of control.

In the case of `O=[N+]([O-])c1ccccc1C1CCCCC1`, the T/C under setting [23] is 89 % of control; the T/C (dose: 200.0 mg/kg/injection, schedule: Q04DX002 (ip), vehicle: saline with Tween-80) is 93 % of control; the T/C (dose: 400.0 mg/kg/injection, schedule: Q04DX002 (ip), vehicle: saline with Tween-80) was 100 % of control.

Take `COc1cc2c(cc1OC)NCc1cccn1C2`: the T/C by setting is: (dose: 25.0 mg/kg/injection, schedule: Q04DX002 (ip), vehicle: saline with Tween-80) 101 % of control; (dose: 50.0 mg/kg/injection, schedule: Q04DX002 (ip), vehicle: saline with Tween-80) 97 % of control; under setting [23], 105 % of control.

For `O=NN(CCCl)C(=O)Nc1c[nH]c2ccccc12`, the T/C (dose: 118.0 mg/kg/injection, schedule: Q01DX009 (ip), vehicle: carboxymethylcellulose (CMC)) was 116 % of control; the T/C (dose: 177.0 mg/kg/injection, schedule: Q01DX009 (ip), vehicle: carboxymethylcellulose (CMC)) was 116 % of control; the T/C (dose: 266.0 mg/kg/injection, schedule: Q01DX009 (ip), vehicle: carboxymethylcellulose (CMC)) is 123 % of control; the T/C (dose: 400.0 mg/kg/injection, schedule: Q01DX009 (ip), vehicle: carboxymethylcellulose (CMC)) is 124 % of control; the T/C (dose: 600.0 mg/kg/injection, schedule: Q01DX009 (ip), vehicle: carboxymethylcellulose (CMC)) was 156 % of control.

On to `CC(=O)Oc1ccc(C=O)cc1`, for which the T/C was 96 % of control (dose: 50.0 mg/kg/injection, schedule: Q04DX003 (ip), vehicle: saline with Tween-80); 91 % of control under setting [1]; 96 % of control under setting [2].

`O=[N+]([O-])c1ccc(OCc2ccccc2S(=O)(=O)F)c(Cl)c1`: the T/C by setting is: (dose: 100.0 mg/kg/injection, schedule: Q04DX003 (ip), vehicle: gum acacia) 92 % of control; (dose: 200.0 mg/kg/injection, schedule: Q04DX003 (ip), vehicle: gum acacia) 93 % of control; (dose: 400.0 mg/kg/injection, schedule: Q04DX003 (ip), vehicle: gum acacia) 100 % of control.

For the compound `O=C(Nc1ccc([N+](=O)[O-])cc1Cl)Sc1ccccc1O`, the T/C was 104 % of control under setting [16], 104 % of control under setting [17] and 86 % of control under setting [22].

For `CCOC(=O)Nc1cc(NC(=O)OCC)cc([N+](=O)[O-])c1`, the T/C is 110 % of control under setting [1], 102 % of control under setting [2] and 89 % of control under setting [18].

With `COc1cc(C(C)O)cc(OC)c1OC` (centres undefined), the T/C under setting [16] was 101 % of control; the T/C under setting [1] is 101 % of control; the T/C under setting [17] is 98 % of control; the T/C under setting [2] is 100 % of control; the T/C under setting [22] is 93 % of control; the T/C under setting [18] was 99 % of control.
